Laboratory results from ChEMBL document CHEMBL1909046, “DrugMatrix in vitro pharmacology data”.

Columns and labels:
D(4) dopamine receptor = biological target: T1, D(4) dopamine receptor (Homo sapiens, UniProt P21917); experiment: DRUGMATRIX: Dopamine D4.2 radioligand binding (ligand: [3H] Spiperone); type: cell membranes, CHO-K1, Membrane; conditions: cho-k1; Not Active = under 50% inhibition at 10 µM
T1 sequence (P21917 whole entry): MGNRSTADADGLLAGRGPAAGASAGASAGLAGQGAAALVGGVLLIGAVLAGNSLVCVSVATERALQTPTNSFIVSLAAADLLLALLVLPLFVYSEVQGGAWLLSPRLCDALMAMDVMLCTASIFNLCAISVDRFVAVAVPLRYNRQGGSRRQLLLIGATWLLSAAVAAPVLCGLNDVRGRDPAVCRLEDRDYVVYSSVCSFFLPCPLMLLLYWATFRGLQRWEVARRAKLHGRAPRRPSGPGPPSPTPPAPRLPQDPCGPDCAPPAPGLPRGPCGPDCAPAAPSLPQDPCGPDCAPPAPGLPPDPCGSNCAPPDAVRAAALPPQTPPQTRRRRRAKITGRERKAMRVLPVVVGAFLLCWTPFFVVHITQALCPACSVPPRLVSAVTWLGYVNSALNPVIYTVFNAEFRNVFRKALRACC

Leukotriene C4 synthase = biological target: T2, Leukotriene C4 synthase (Cavia porcellus, UniProt A6XA80); type: tissue-based, Lung;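 also: enzyme inhibition assay of leukotriene C4 synthase, using LTA4 as the substrate; in other assays of this panel Not Active means under 50% inhibition at 10 µM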
T2 sequence (A6XA80 whole entry): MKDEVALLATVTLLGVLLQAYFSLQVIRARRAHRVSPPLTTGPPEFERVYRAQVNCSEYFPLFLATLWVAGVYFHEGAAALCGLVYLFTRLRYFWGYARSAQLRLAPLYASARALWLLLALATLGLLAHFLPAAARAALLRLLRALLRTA

[1] = biological target: T3, 5-hydroxytryptamine receptor 2C (Homo sapiens, UniProt P28335); experiment: DRUGMATRIX: Serotonin (5-Hydroxytryptamine) 5-HT2C radioligand binding (ligand: [3H] Mesulergine); type: cell membranes, CHO-K1, Membrane; conditions: cho-k1; Not Active = under 50% inhibition at 10 µM
T3 sequence (P28335 whole entry): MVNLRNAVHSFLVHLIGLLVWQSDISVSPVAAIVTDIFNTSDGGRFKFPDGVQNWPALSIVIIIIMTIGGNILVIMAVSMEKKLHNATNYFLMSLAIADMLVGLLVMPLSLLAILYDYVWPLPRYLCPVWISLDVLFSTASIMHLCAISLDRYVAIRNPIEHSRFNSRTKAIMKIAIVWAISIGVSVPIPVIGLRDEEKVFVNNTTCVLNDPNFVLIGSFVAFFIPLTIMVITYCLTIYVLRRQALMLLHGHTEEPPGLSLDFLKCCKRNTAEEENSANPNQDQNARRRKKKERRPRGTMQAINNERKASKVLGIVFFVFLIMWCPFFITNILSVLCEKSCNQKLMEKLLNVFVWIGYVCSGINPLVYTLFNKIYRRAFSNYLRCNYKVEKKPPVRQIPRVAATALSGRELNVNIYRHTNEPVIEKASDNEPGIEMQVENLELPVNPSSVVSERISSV

Estrogen receptor beta = Estrogen receptor beta (Homo sapiens, UniProt Q92731); conditions: sf9; also: in other assays of this panel Not Active means under 50% inhibition at 10 µM
Sequence of Estrogen receptor beta (Q92731 whole entry): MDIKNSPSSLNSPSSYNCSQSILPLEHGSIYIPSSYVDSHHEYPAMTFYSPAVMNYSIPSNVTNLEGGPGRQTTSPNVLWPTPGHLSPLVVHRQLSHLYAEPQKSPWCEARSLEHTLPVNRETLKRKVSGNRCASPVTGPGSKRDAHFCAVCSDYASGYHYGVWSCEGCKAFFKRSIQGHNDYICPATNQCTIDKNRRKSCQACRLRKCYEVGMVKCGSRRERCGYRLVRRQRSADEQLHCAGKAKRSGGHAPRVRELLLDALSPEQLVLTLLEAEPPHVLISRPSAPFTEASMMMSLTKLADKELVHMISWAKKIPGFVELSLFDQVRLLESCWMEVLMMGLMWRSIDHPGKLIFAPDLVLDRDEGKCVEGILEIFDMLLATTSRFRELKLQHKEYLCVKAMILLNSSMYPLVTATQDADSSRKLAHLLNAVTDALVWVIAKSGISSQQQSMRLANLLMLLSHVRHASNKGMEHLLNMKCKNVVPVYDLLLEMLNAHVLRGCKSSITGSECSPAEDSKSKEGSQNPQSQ

[2] = biological target: T4, Cholecystokinin receptor type A (Homo sapiens, UniProt P32238); type: cell membranes, Membrane; conditions: 1321-n1; also: in other assays of this panel Not Active means under 50% inhibition at 10 µM
T4 sequence (P32238 whole entry): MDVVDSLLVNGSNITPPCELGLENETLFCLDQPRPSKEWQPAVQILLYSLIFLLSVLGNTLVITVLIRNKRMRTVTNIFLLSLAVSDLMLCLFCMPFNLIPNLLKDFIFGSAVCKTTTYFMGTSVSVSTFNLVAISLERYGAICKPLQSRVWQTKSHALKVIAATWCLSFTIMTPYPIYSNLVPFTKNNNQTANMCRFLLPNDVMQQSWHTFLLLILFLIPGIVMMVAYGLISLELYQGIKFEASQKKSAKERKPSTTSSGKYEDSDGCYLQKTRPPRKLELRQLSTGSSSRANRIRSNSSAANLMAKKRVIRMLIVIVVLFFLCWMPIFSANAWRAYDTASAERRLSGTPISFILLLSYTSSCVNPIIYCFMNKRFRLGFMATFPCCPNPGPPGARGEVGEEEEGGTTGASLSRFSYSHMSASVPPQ

[3] = biological target: Delta-type opioid receptor (Homo sapiens, UniProt P41143); type: cell membranes, HEK293, Membrane; conditions: hek293; also: in other assays of this panel Not Active means under 50% inhibition at 10 µM
Sequence of Delta-type opioid receptor (P41143 whole entry): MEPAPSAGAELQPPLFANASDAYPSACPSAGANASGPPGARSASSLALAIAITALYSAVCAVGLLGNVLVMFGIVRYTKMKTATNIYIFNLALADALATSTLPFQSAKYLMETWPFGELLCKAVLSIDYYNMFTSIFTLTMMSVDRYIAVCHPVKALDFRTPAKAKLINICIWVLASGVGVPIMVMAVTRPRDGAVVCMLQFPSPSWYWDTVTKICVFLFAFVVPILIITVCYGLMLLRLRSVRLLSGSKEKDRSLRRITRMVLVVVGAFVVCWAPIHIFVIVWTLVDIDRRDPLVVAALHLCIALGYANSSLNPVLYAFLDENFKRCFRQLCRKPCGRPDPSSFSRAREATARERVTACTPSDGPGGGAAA

CC(=O)OCC(COC(C)=O)OC(C)=O [TRIACETIN]
Not Active: IC50 (D(4) dopamine receptor) | IC50 (Leukotriene C4 synthase) | IC50 [1] | IC50 (Estrogen receptor beta) | IC50 [2] | IC50 [3]

CN1CCN(CCCN2c3ccccc3Sc3ccc(C(F)(F)F)cc32)CC1 [TRIFLUOPERAZINE]
Not Active: IC50 (D(4) dopamine receptor) | IC50 (Leukotriene C4 synthase) | IC50 [1] | IC50 (Estrogen receptor beta) | IC50 [2] | IC50 [3]

TRANSPLATIN
Not Active: IC50 (D(4) dopamine receptor) | Ki (D(4) dopamine receptor) | IC50 (Leukotriene C4 synthase) | Ki (Leukotriene C4 synthase) | IC50 [1] | Ki [1] | IC50 (Estrogen receptor beta) | Ki (Estrogen receptor beta) | IC50 [2] | Ki [2] | IC50 [3] | Ki [3]

ZIRCONIUM(IV) CHLORIDE
Not Active: IC50 (D(4) dopamine receptor) | Ki (D(4) dopamine receptor) | IC50 (Leukotriene C4 synthase) | Ki (Leukotriene C4 synthase) | IC50 [1] | Ki [1] | IC50 (Estrogen receptor beta) | Ki (Estrogen receptor beta) | IC50 [2] | Ki [2] | IC50 [3] | Ki [3]
